Entries after “also recorded” stand apart in the source; their conditions may differ. Like-named read-outs stand apart in the source and are kept apart here. One block for each compound: values may come before it.
Key:
[1] = cited from earlier work
[2] = Urinary excretion in ileostomy patients; type: in vivo, human (ileostomy patients)
Protocol: DETERMINATION OF 5-[…] BIOLOGICAL FLUIDS […] Six ileostomy patients colectomized because of colitis ulcerosa with intact small bowel were studied. Their distribution as to sex, age, height, body weight, time since colectomy, small bowel transit time (carmine), and acetylator phenotype (v. Fischer and Klotz, op. cit.) (assessed by sulphadimidine) are shown below in talbe I. […] Ileostomy effluents were collected every hour for eight hours (FIGS. 1+2) urine was collected over an 8 hour period and venous blood was drawn at intervals through the first eight hours (FIGS. 3 and 4).

[3] = cited from earlier work; for amounts observed in the feces: oral 5-ASA, healthy volunteers
[4] = Faecal excretion and total recovery in healthy volunteers; type: in vivo, human (healthy volunteers); conditions: for daily qualitative faecal analysis: morning samples from day 2 throughout the study
Protocol: (§3) Each subject took two 5-ASA tablets, i.e. 500 mg 5-ASA, three times a day for six days, at 8 a.m., 4 p.m. and at midnight except for the first day, where the two first ingestions took place at 9 a.m. and 5 p.m. […] The two tablets at 8 a.m. were taken by the fasting subject. Venous blood samples for determination of 5-ASA and 5-AsASA were drawn at intevals throughout the first day (FIG. 5) and at 7.50 the following five days(i.e. before the 8 a.m. tablets were ingested) (FIG. 6). Twenty-four hour urine and faecal smaples were collected on the 6th day for quantitative determination of 5-ASA and 5-AcASA. EVery day throughout the study peroid of six days a single faecal sample was analgzed qualitatively for the presence of 5-ASA and 5-AcASA.

[5] = Plasma concentrations in healthy volunteers; type: in vivo, human (healthy volunteers)
Protocol: as §3

[6] = system: colitis ulcerosa; conditions: cited from earlier work; for therapeutic role on rectal administration: Azad Khan et al.
[7] = oral 5-ASA; rats; cited from earlier work
[8] = Ileostomy effluent study (5-ASA / 5-AcASA excretion) in ileostomy patients; type: in vivo, human (ileostomy patients); conditions: for detection in ileostomy secretions: first two hours, 500 mg 5-ASA single oral dose; for excretion rate in ileostomy effluents: following hours up to 8 hours after ingestion
Excerpt: DETERMINATION OF 5-[…] BIOLOGICAL FLUIDS […] ILEOSTOMY PATIENTS Six ileostomy patients colectomized because of colitis ulcerosa with intact small bowel were studied. Their distribution as to sex, age, height, body weight, time since colectomy, small bowel transit time (carmine), and acetylator phenotype (v. Fischer and Klotz, op. cit.) (assessed by sulphadimidine) are shown below in talbe I. ILEOSTOMY PATIENTS […] Ileostomy effluents were collected every hour for eight hours (FIGS. 1+2) urine was collected over an 8 hour period and venous blood was drawn at intervals through the first eight hours (FIGS. 3 and 4).

[9] = Urinary excretion in healthy volunteers; type: in vivo, human (healthy volunteers)
Excerpt: It is the purpose of the clinical studies described below to estimate the bioavailability of a sustained-release type 5-ASA tablet (Pentasea®) of the composition described above in the example by the study of 5-ASA/5-AcASA plasma levels in healthy volunteers as well as the excretion pattern in urine and faces.
(§1) DETERMINATION OF 5-ASA AND 5-AcASA IN BIOLOGICAL FLUIDS
(§2) Procedures for the determination of 5ASA and 5AcASA in ileostomy effluents, feces, urine and blood were based on a newly developed HPLC assay combined with flurescens spectophotometry.
Fourteen healthy persons consented to volunteer. They had no previous or present symptoms or signs of gastrointestinal or other disease apart from uncomplicated appendectomy. There were seven females and seven males. Mean age and age range were for the women 32.4 years and 29-37 years, and for the males 32 years and 24-40 years, respectively. Mean body weight and weight range were for the females 58.6 kg and 53-67 kg, and for the males 70.9 kg and 60-83 kg, respectively. There were eight slow and 6 fast acetylators.
Each subject took two 5-ASA tablets, i.e. 500 mg 5-ASA, three times a day for six days, at 8 a.m., 4 p.m. and at midnight except for the first day, where the two first ingestions took place at 9 a.m. and 5 p.m. The injections are shown by arrows on FIG. 5 and 6. The two tablets at 8 a.m. were taken by the fasting subject. Venous blood samples for determination of 5-ASA and 5-AsASA were drawn at intevals throughout the first day (FIG. 5) and at 7.50 the following five days(i.e. before the 8 a.m. tablets were ingested) (FIG. 6). Twenty-four hour urine and faecal smaples were collected on the 6th day for quantitative determination of 5-ASA and 5-AcASA. EVery day throughout the study peroid of six days a single faecal sample was analgzed qualitatively for the presence of 5-ASA and 5-AcASA.

[10] = system: inflamed mucosa in ulcerative colitis; conditions: enema; compared with 5-ASA; cited from earlier work
[11] = Plasma concentrations in ileostomy patients; type: in vivo, human (ileostomy patients); conditions: half an hour after ingestion of 500 mg 5-ASA
Excerpt: as §1, §2
Six ileostomy patients colectomized because of colitis ulcerosa with intact small bowel were studied. Their distribution as to sex, age, height, body weight, time since colectomy, small bowel transit time (carmine), and acetylator phenotype (v. Fischer and Klotz, op. cit.) (assessed by sulphadimidine) are shown below in talbe I.
A single dose of two tablets of sustained-release 5-ASA i.e. total dose 500 mg, were ingested at 8 a.m. by the fasting patient who thereafter took a normal continental breakfast, lunch at noon, and dinner at 6 p.m. Ileostomy effluents were collected every hour for eight hours (FIGS. 1+2) urine was collected over an 8 hour period and venous blood was drawn at intervals through the first eight hours (FIGS. 3 and 4).

[12] = cited from earlier work; remark: listed apart in the source
[13] = system: Crohn's disease; conditions: cited from earlier work

- 5ASA found in urine ([2]; 500 mg 5-ASA single oral dose): no 5ASA was found except in one case
- 5-ASA found in urine, one case ([2]; one patient, 500 mg 5-ASA): 1.4 mg
- faecal content of granules, released and non-released 5-ASA (average total) ([4]; analysed 24 hours after collection of the faeces): 5-10%
- 95% confidence limits of mean faecal excretion of free 5-ASA and 5-AsASA ([4]; day 6, steady state): 378-650 mg per 24 h
- total mean faecal excretion of free 5-ASA and 5-AsASA ([4]; day 6, steady state, sum of 5-ASA and 5-AsASA, mean): 514 mg per 24 h
- recovery ([4]; human, urine and faeces, po, day 6, steady state, daily ingested total dose 1500 mg 5-ASA, read-out: mean recovery rate): 83%
- daily qualitative faecal analysis [4]: presence
- concentration at 144 h ([5]; human, plasma, po, day six, all fourteen subjects, 500 mg t.i.d., read-out: total range of 5-ASA plasma concentrations): 1200 to 2830 ng/mL
- variation according to acetylator phenotype ([5]; slow and fast acetylators): did not show a significant variation
- share of collected portion as 5-ASA still retained in the granules ([8]; 8 hours, of the 58% collected): last third
- share of collected portion as free 5-ASA ([8]; 8 hours, of the 58% collected): one third
- detection in ileostomy secretions [8]: no 5-ASA or 5-AcASA could be detected
- excretion rate in ileostomy effluents ([8]; 500 mg 5-ASA): excreted at constant rates
- dose excreted at 48 h ([8]; human, ileostomy effluent, po, 500 mg, one patient, collecting up to 48 hours, read-out: further 5-ASA found on expanded collection): 20%
- dose excreted at 8 h ([8]; human, ileostomy effluent, po, 8 hours after ingestion, 500 mg 5-ASA, read-out: ingested total dose collected in the ileostomy bags): 58%
- Fa ([8]; human, small bowel, po, 500 mg, composition of the invention, ileostomy patients, read-out: 5-ASA that may be absorbed from the small bowel): ≤ 50%
- 5-ASA retained in the granules ([8]; one patient, collecting up to 48 hours): more than one third
- urinary excretion of free 5-ASA ([9]; 500 mg t.i.d.): could not be recorded
Structure (SMILES): Nc1ccc(O)c(C(=O)O)c1 [5-ASA, 5-aminosalicylic acid]
- absorption from the colon ([1]; after SASP): the major part of the released 5-ASA is not absorbed
- absorption of 5-ASA from the colon in diarrhoea ([1]; after SASP, van Hees et al.): drastically decreased
- serum concentrations ([1]; in vivo, po): very low serum concentrations
- absorption from the small bowel ([3]; free 5-ASA, oral, healthy subjects): absorbed from the small bowel in particular the jejunum; also recorded: essentially completely
- amounts observed in the feces [3]: no noticeable amounts
- therapeutic effect ([6]; Azad Khan et al. and van Hees et al.): also has therapeutic effect
- therapeutic role on rectal administration [6]: therapeutically active moiety; also recorded: exhibits a useful therapeutic activity like SASP
- absorption from the small bowel [7]: essentially completely
- amounts observed in the feces [7]: no noticeable amounts

- mean 5-AsASA found in urine ([2]; within 8 hours, 500 mg 5-ASA, mean): 60 mg
- range of 5-AsASA found in urine ([2]; within 8 hours, 500 mg 5-ASA, range): 42 to 82 mg
- daily qualitative faecal analysis [4]: presence
- detection in plasma and urine ([5]; whole study, 500 mg t.i.d. for six days): only 5AcASA was detected
- share of collected portion as free 5-AsASA ([8]; 8 hours, of the 58% collected): another third
- detection in ileostomy secretions [8]: no 5-ASA or 5-AcASA could be detected
- excretion rate in ileostomy effluents ([8]; 500 mg 5-ASA): excreted at constant rates
- plasma amounts of 5AsASA [11]: Trace amounts
- 95% confidence limits of mean urinary 5-AsASA excretion ([9]; day 6, steady state): 587-887 mg per 24 h
- mean urinary 5-AsASA excretion during 24 h ([9]; day 6, steady state, 24 h, calculated as 5-ASA, mean): 737 mg
Structure (SMILES): CC(=O)Nc1ccc(O)c(C(=O)O)c1 [5-AcASA, N-acetyl-5-aminosalicylic acid]
- serum concentrations ([1]; after oral administration of 4 g of SASP, Fischer and Klotz): very low serum concentrations
- amounts observed in the feces [3]: no noticeable amounts
- effect on the inflamed mucosa in ulcerative colitis [10]: resembled 5-ASA in its effect on the inflamed mucosa
- amounts observed in the feces [7]: no noticeable amounts

Structure (SMILES): O=C(O)c1cc(/N=N/c2ccc(S(=O)(=O)Nc3ccccn3)cc2)ccc1O [SASP, salicylazosulfapyridine]
- state on reaching the colon ([1]; oral SASP): reaches the colon intact
- patients allergic to sulfa drugs ([12]; excludes SASP treatment): up to 10%
- side effects ([12]; in vivo): nausea and vomitting, skin rashes, anemia, arthralgias, headache
- effectiveness in Crohn's disease of colon and rectum ([13]; disease extends to or limited to colon and rectum): proved effective
- effectiveness in Crohn's disease limited to the ileum ([13]; disease limited to the ileum): not proved to be very effective

Structure (SMILES): Nc1ccc(S(=O)(=O)Nc2ccccn2)cc1 [SP, sulfapyridine]
- absorption from the colon ([1]; after SASP): highly absorbed from the colon
- therapeutic role on rectal administration [6]: only acts as a "carrier"

Source: patent publication US4960765A, “Pharmaceutical composition and method for the treatment of colitis ulcerosa and Crohn's disease by oral administration” (priority 1989, dated 1990)
